By pIC50 is commonly meant the IC50 on a negative log10 scale, so that one unit is a factor of ten.

pIC50: −log10 of the molar value.

Our source for the IC50 values is patent publication US7692014B2, “Inhibitors of the HIV integrase enzyme” (Pfizer, Inc., priority 2004, dated 2010).

This experiment addresses T1, Full-length wild type HIV-1 integrase (SF1) (Human immunodeficiency virus type 1 group M subtype B, UniProt P04585).
T1 construct: made in house; host or cells: E. coli BL21 (DE3), pET24a vector
Nature of the experiment: Integrase strand-transfer scintillation proximity assay. The note with it: integrase strand-transfer SPA; read-out: IC50. Type of experiment: biochemical. The text has this:
Integrase Strand-Transfer Scintillation Proximity Assay Oligonucleotides
The annealed product represents preprocessed viral ds-DNA derived from the LTR U5 sequence of the viral genome. A ds-DNA control to test for non-specific interactions was made using a 3′ di-deoxy derivative of oligonucleotide #1 annealed to oligonucleotide #2. The CA overhang at the 5′ end of the non-biotinylated strand of the ds-DNA was created artificially by using a complimentary DNA oligonucleotide shortened by 2 base pairs. This configuration eliminates the requisite 3′ processing step of the integrase enzyme prior to the strand-transfer mechanism.
Host ds-DNA was prepared as an unlabeled and [^3H]-thymidine labeled product from annealed oligonucleotide #3—5-[…]-3′ (SEQ ID NO: 3), and oligonucleotide #4—5′-[…]-3′ (SEQ ID NO: 4), both synthesized by TriLink BioTechnologies, Inc. (San Diego, Calif.). The annealed product had overhanging 3′ ends of poly(dA). […] The radiolabeled product was purified using a NENSORB cartridge and stored in stabilized aqueous solution (PerkinElmer).
Reagents: Streptavidin-coated polyvinyltoluene (PVT) SPA beads were purchased from Amersham Biosciences (Piscataway, N.J.). Cesium chloride was purchased from Shelton Scientific, Inc. (Shelton, Conn.). White, polystyrene, flat-bottom, non-binding surface, 96-well plates were purchased from Corning. All other buffer components were purchased from Sigma (St. Louis, Mo.) unless otherwise indicated. Enzyme Construction: Full-length wild type HIV-1 integrase (SF1) sequence (amino acids 1-288) was constructed in a pET24a vector (Novagen, Madison, Wis.). […] Enzyme Purification: Full length wild-type HIV Integrase was expressed in E.coli BL21 (DE3) cells and induced with 1 mM isopropyl-1 thio-β-D-galactopyranoside (IPTG) when cells reached an optical density between 0.8-1.0 at 600 nm. Cells were lysed by microfluidation in 50 mM HEPES pH 7.0, 75 mM NaCl, 5 mM DTT, 1 mM 4-(2-Aminoethyl)benzenesulfonylfluoride HCl (AEBSF). Lysate was then centrifuged 20 minutes at 11 k rpm in GSA rotor in Sorvall RC-5B at 4° C. Supernant was discarded and pellet resuspended in 50 mM HEPES pH 7.0, 750 mM NaCl, 5 mM DTT, 1 mM AEBSF and homogenized in a 40 mL Dounce homogenizer for 20 minutes on ice. Homogenate was then centrifuged 20 minutes at 11 k rpm in SS34 rotor in Sorvall RC-5B at 4° C. Supernant was discarded and pellet resuspended in 50 mM HEPES pH 7.0, 750 mM NaCl, 25 mM CHAPS, 5 mM DTT, 1 mM AEBSF. Preparation was then centrifuged 20 minutes at 11 k rpm in SS34 rotor in Sorvall RC-5B at 4° C.
Supernant was then diluted 1:1 with 50 mM HEPES pH 7.0, 25 mM CHAPS, 1 mM DTT, 1 mM AEBSF and loaded onto a Q-Sepharose column pre-equilibrated with 50 mM HEPES, pH 7.0, 375 mM NaCl, 25 mM CHAPS, 1 mM DTT, 1 mM AEBSF. The flow through peak was collected and NaCl diluted to 0.1 M with 50 mM HEPES pH 7.0, 25 mM CHAPS, 1 mM DTT, 0.5 mM AEBSF and loaded onto a SP-Sepharose column pre-equilibrated with 50 mM HEPES pH 7.0, 100 mM NaCl, 25 mM CHAPS, 1 mM DTT, 0.5 mM AEBSF. After washing the column with the equilibration buffer, a 100 to 400 mM NaCl gradient was run. The eluted integrase was concentrated and run on a S-300 gel diffusion column using 50 mM HEPES pH 7.0, 500 mM NaCl, 25 mM CHAPS, 1 mM DTT, 0.5 mM AEBSF. […] All columns were run in a 4° C. cold room.
Viral DNA Bead Preparation: Streptavidin-coated SPA beads were suspended to 20 mg/mL in 25 mM 3-morpholinopropanesulfonic acid (MOPS) (pH 7.2) and 1.0% NaN3.
For orientation: Scintillation proximity formats need no separation of bound from free tracer.
Consider `O=c1c2ncc3c(c(S(=O)(=O)NCC(F)(F)F)cn3Cc3ccc(F)cc3)c2ccn1O` [Example 24, 3-(4-fluorobenzyl)-7-hydroxy-6-oxo-N-(2,2,2-trifluoroethyl)-6,7-dihydro-3H-pyrrolo[2,3-c]-1,7-naphthyridine-1-sulfonamide], for which the negative logarithm of the IC50 (pIC50) is 8.30.
`CCS(=O)(=O)N1CCN(Cc2cn(Cc3ccc(F)cc3)c3cnc4c(=O)n(O)ccc4c23)CC1` [Example 52, 1-{[4-(ethylsulfonyl)piperazin-1-yl]methyl}-3-(4-fluorobenzyl)-7-hydroxy-3,7-dihydro-6H-pyrrolo[2,3-c]-1,7-naphthyridin-6-one]: the pIC50 is 7.98.
Turning to `O=c1c2ncc3c(c(CN4CCC(O)CC4)cn3Cc3ccc(F)cc3)c2ccn1O` [Example 53, 3-(4-fluorobenzyl)-7-hydroxy-1-[(4-hydroxypiperidin-1-yl)methyl]-3,7-dihydro-6H-pyrrolo[2,3-c]-1,7-naphthyridin-6-one], the pIC50 was 8.15.
For `CCN(Cc1cn(Cc2ccc(F)cc2)c2cnc3c(=O)n(O)ccc3c12)C1CCCCC1` [Example 14, 1-{[cyclohexyl(ethyl)amino]methyl}-3-(4-fluorobenzyl)-7-hydroxy-3,7-dihydro-6H-pyrrolo[2,3-c]-1,7-naphthyridin-6-one] the value was 7.89; for `CC(=O)N1CCN(C(=O)c2cn(Cc3ccc(F)cc3)c3cnc4c(=O)n(O)ccc4c23)CC1` [Example 27, 1-[(4-acetylpiperazin-1-yl)carbonyl]-3-(4-fluorobenzyl)-7-hydroxy-3,7-dihydro-6H-pyrrolo[2,3-c]-1,7-naphthyridin-6-one], 7.89; for `O=C(CN1CCN(Cc2cn(Cc3ccc(F)cc3)c3cnc4c(=O)n(O)ccc4c23)CC1)N1CCCC1` [Example 15, 3-(4-fluorobenzyl)-7-hydroxy-1-{[4-(2-oxo-2-pyrrolidin-1-ylethyl)piperazin-1-yl]methyl}-3,7-dihydro-6H-pyrrolo[2,3-c]-1,7-naphthyridin-6-one], 8.30.
As to `O=C1CN(S(=O)(=O)c2cn(Cc3ccc(F)cc3)c3cnc4c(=O)n(O)ccc4c23)CCN1` [Example 22, 3-(4-fluorobenzyl)-7-hydroxy-1-[(3-oxopiperazin-1-yl)sulfonyl]-3,7-dihydro-6H-pyrrolo[2,3-c]-1,7-naphthyridin-6-one], the pIC50 is 8.22.
`CCCCCN(C)Cc1cn(Cc2ccc(F)cc2)c2cnc3c(=O)n(O)ccc3c12` [Example 11, 3-(4-fluorobenzyl)-7-hydroxy-1-{[methyl(pentyl)amino]methyl}-3,7-dihydro-6H-pyrrolo[2,3-c]-1,7-naphthyridin-6-one]: the pIC50 is 8.22.
With `CCCCc1cc2c(ncc3c2ccn3Cc2ccc(F)cc2)c(=O)n1O` [Example 46, 8-butyl-3-(4-fluorobenzyl)-7-hydroxy-3,7-dihydro-6H-pyrrolo[2,3-c]-1,7-naphthyridin-6-one], the pIC50 was 7.31.
For `CC(C)(C)OC(=O)N1CCC(COCc2cn(Cc3ccc(F)cc3)c3cnc4c(=O)n(O)ccc4c23)CC1` [Example 32], the pIC50 is 6.97.
Regarding `O=C1CCN(Cc2cn(Cc3ccc(F)cc3)c3cnc4c(=O)n(O)ccc4c23)CCN1` [Example 19, 3-(4-fluorobenzyl)-7-hydroxy-1-[(5-oxo-1,4-diazepan-1-yl)methyl]-3,7-dihydro-6H-pyrrolo[2,3-c]-1,7-naphthyridin-6-one], the pIC50 was 8.30.
The figure for `O=C(NCCc1cnccn1)c1cn(Cc2ccc(F)cc2)c2cnc3c(=O)n(O)ccc3c12` [Example 28, 3-(4-fluorobenzyl)-7-hydroxy-6-oxo-N-(2-pyrazin-2-ylethyl)-6,7-dihydro-3H-pyrrolo[2,3-c]-1,7-naphthyridine-1-carboxamide] is 7.92; for `O=c1c2ncc3c(c(COCCc4ccccn4)cn3Cc3ccc(F)cc3)c2ccn1O` [Example 33, 3-(4-fluorobenzyl)-7-hydroxy-1-[(2-pyridin-2-ylethoxy)methyl]-3,7-dihydro-6H-pyrrolo[2,3-c]-1,7-naphthyridin-6-one] it is 7.59; for `O=C1c2ncc3c(ccn3Cc3ccc(F)cc3)c2CCCN1O` [Example 45, 3-(4-fluorobenzyl)-7-hydroxy-7,8,9,10-tetrahydropyrrolo[3′,2′: 4,5]pyrido[2,3-c]azepin-6(3H)-one] it is 7.62.
With `CN(C)Cc1cn(Cc2ccc(F)cc2)c2cnc3c(=O)n(O)ccc3c12` [Example 4, 1-[(dimethylamino)methyl]-3-(4-fluorobenzyl)-7-hydroxy-3,7-dihydro-6H-pyrrolo[2,3-c]-1,7-naphthyridin-6-one], the pIC50 is 8.10.
With `O=c1c2ncc3c(ccn3Cc3ccc(F)cc3)c2ccn1O` [Example 1, 3-(4-Fluorobenzyl)-7-hydroxy-3,7-dihydro-6H-pyrrolo[2,3-c]-1,7-naphthyridin-6-one], the pIC50 was 7.70.
As for `O=c1c2ncc3c(c(CNC4(CO)CCCC4)cn3Cc3ccc(F)cc3)c2ccn1O` [Example 39, 3-(4-fluorobenzyl)-7-hydroxy-1-({[1-(hydroxymethyl)cyclopentyl]amino)methyl)-3,7-dihydro-6H-pyrrolo[2,3-c]-1,7-naphthyridin-6-one], the pIC50 is 7.10.
For the molecule `O=c1c2ncc3c(c(CN4CCN5C[C@H](O)CC5C4)cn3Cc3ccc(F)cc3)c2ccn1O` (stereo partly drawn) [Example 55, 3-(4-fluorobenzyl)-7-hydroxy-1-{[(7R)-7-hydroxyhexahydropyrrolo [1,2-a]pyrazin-2(1H)-yl]methyl}-3,7-dihydro-6H-pyrrolo[2,3-c]-1,7-naphthyridin-6-one], the pIC50 was 8.15.
`Cc1cnc(CNCc2cn(Cc3ccc(F)cc3)c3cnc4c(=O)n(O)ccc4c23)cn1` [Example 42, 3-(4-fluorobenzyl)-7-hydroxy-1-({[(5-methylpyrazin-2-yl)methyl]amino)methyl)-3,7-dihydro-6H-pyrrolo[2,3-c]-1,7-naphthyridin-6-one]: the pIC50 was 7.27.
For the molecule `Cc1cc2c(ncc3c2ccn3Cc2ccc(F)cc2)c(=O)n1O` [Example 47, 3-(4-fluorobenzyl)-7-hydroxy-8-methyl-3,7-dihydro-6H-pyrrolo[2,3-c]-1,7-naphthyridin-6-one], the pIC50 is 7.96.
For `O=c1c2ncc3c(c(CN4CCN(CCN5CCOCC5)CC4)cn3Cc3ccc(F)cc3)c2ccn1O` [Example 58, 3-(4-fluorobenzyl)-7-hydroxy-1-{[4-(2-morpholin-4-ylethyl)piperazin-1-yl]methyl}-3,7-dihydro-6H-pyrrolo[2,3-c]-1,7-naphthyridin-6-one] the value was 7.66.
For `CCCNCc1cn(Cc2ccc(F)cc2)c2cnc3c(=O)n(O)ccc3c12` [Example 40, 3-(4-fluorobenzyl)-7-hydroxy-1-[(propylamino)methyl]-3,7-dihydro-6H-pyrrolo[2,3-c]-1,7-naphthyridin-6-one] the value was 7.21; for `COCCOCc1cn(Cc2ccc(F)cc2)c2cnc3c(=O)n(O)ccc3c12` [Example 36, 3-(4-fluorobenzyl)-7-hydroxy-1-[(2-methoxyethoxy)methyl]-3,7-dihydro-6H-pyrrolo[2,3-c]-1,7-naphthyridin-6-one], 7.70; for `O=C1CCCN1CC1(O)CCN(Cc2cn(Cc3ccc(F)cc3)c3cnc4c(=O)n(O)ccc4c23)CC1` [Example 18, 3-(4-fluorobenzyl)-7-hydroxy-1-({4-hydroxy-4-[(2-oxopyrrolidin-1-yl)methyl]piperidin-1-yl}methyl)-3,7-dihydro-6H-pyrrolo[2,3-c]-1,7-naphthyridin-6-one], 7.96.
